{"source": "ChEMBL document CHEMBL5463723", "about": "“Data for DCP probe BIBO3304” (2023)", "key": {"[1]": {"target": "Histamine H1 receptor (Homo sapiens) (UniProt P35367)", "assay": "H1 Eurofins-Cerep binding assay", "parameters": "ligand concentration 1 nM", "details": "Compound concentration 10.0 uM; call rule not given here"}, "[2]": {"target": "Gamma-aminobutyric acid receptor subunit alpha-1 (Rattus norvegicus) (UniProt P62813)", "assay": "Agonist activity in the Eurofins Panlabs screen (BI) against GABAA-AGSI/R by Scintillation counting", "details": "Compound concentration 10.0 uM"}, "[3]": {"target": "Endothelin-1 receptor (Rattus norvegicus) (UniProt P26684)", "sequence (P26684 whole entry)": "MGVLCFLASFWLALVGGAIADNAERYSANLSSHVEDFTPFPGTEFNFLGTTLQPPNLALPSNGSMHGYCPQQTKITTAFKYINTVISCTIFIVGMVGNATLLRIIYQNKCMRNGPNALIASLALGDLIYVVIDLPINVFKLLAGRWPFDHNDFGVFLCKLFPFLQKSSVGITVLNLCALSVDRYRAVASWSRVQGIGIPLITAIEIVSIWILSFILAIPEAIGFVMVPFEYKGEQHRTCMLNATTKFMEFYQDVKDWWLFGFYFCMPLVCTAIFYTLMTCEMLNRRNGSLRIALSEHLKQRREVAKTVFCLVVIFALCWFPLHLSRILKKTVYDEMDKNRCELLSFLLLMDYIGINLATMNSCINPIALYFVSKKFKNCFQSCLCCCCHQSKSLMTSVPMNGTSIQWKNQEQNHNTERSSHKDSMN", "assay": "Activity against ETA/R in the Eurofins Panlabs screen (BI) by Radioactive Assay", "details": "Compound concentration 10.0 uM"}, "[4]": {"target": "5-hydroxytryptamine receptor 3A (Homo sapiens) (UniProt P46098)", "sequence (P46098 whole entry)": "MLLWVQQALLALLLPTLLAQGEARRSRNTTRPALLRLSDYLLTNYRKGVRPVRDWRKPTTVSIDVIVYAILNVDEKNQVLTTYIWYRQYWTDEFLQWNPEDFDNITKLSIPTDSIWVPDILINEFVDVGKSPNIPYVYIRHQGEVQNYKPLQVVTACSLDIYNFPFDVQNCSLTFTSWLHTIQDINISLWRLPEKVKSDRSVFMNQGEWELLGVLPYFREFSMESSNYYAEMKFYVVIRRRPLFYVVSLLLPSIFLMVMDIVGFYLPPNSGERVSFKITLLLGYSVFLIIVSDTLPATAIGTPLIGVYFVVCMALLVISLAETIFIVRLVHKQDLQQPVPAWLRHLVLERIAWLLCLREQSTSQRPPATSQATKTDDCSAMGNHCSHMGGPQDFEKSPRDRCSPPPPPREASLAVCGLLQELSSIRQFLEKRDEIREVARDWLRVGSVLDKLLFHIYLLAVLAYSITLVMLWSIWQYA", "assay": "5-HT3 Eurofins-Cerep binding assay", "parameters": "ligand concentration 0.5 nM", "details": "Compound concentration 10.0 uM"}, "[5]": {"target": "Vasopressin V1a receptor (Homo sapiens) (UniProt P37288)", "assay": "V1a Eurofins-Cerep binding assay", "parameters": "ligand concentration 0.3 nM", "details": "Compound concentration 10.0 uM"}, "[6]": {"target": "Epidermal growth factor receptor (Homo sapiens) (UniProt P00533)", "assay": "Activity against EGF/HU in the Eurofins Panlabs screen (BI) by Radioactive Assay", "details": "Compound concentration 10.0 uM"}, "[7]": {"target": "Alpha-1D adrenergic receptor (Rattus norvegicus) (UniProt P23944)", "assay": "Activity against ALPHA1/R in the Eurofins Panlabs screen (BI) by Others", "details": "Compound concentration 10.0 uM"}, "[8]": {"target": "Neuropeptide Y receptor type 2 (Oryctolagus cuniculus) (UniProt G1TSD5)", "assay": "Activity against Y2/RB in the Eurofins Panlabs screen (BI) by Radioactive Assay", "details": "Compound concentration 10.0 uM"}, "[9]": {"target": "Neuropeptide Y receptor type 2 (Rattus norvegicus, UniProt Q9ERC0)", "assay": "Radioligand binding assay (NPY2R, rat hippocampus)", "type": "tissue-based"}, "[10]": {"target": "Alpha-1A adrenergic receptor (Homo sapiens) (UniProt P35348)", "assay": "Activity against ALPHA1A/R in the Eurofins Panlabs screen (BI) by Others", "details": "Rattus norvegicus; Compound concentration 10.0 uM"}, "[11]": {"target": "Adenosine receptor A1 (Rattus norvegicus) (UniProt P25099)", "assay": "Activity against A1/R in the Eurofins Panlabs screen (BI) by Radioactive Assay", "details": "Compound concentration 10.0 uM"}, "[12]": {"target": "Glutamate receptor ionotropic, NMDA 2A (Rattus norvegicus) (UniProt Q00959)", "assay": "Activity against NMDAPHSI/R in the Eurofins Panlabs screen (BI) by Radioactive Assay", "details": "Compound concentration 10.0 uM"}, "[13]": {"target": "D(2) dopamine receptor (Rattus norvegicus) (UniProt P61169)", "assay": "Activity against D2/RAC/R in the Eurofins Panlabs screen (BI)", "details": "Compound concentration 10.0 uM"}, "[14]": {"target": "Potassium voltage-gated channel subfamily V member 1 (Rattus norvegicus) (UniProt P97557)", "assay": "Activity against K+/KV/R in the Eurofins Panlabs screen (BI) by Radioactive Assay", "details": "Compound concentration 10.0 uM"}, "[15]": {"target": "Thyrotropin-releasing hormone receptor (Rattus norvegicus) (UniProt Q01717)", "assay": "Activity against TRH/R in the Eurofins Panlabs screen (BI) by Radioactive Assay", "details": "Compound concentration 10.0 uM"}, "[16]": {"target": "Kappa-type opioid receptor (Cavia porcellus) (UniProt P41144)", "assay": "Activity against KAPPA/GP in the Eurofins Panlabs screen (BI) by Radioactive Assay", "details": "Compound concentration 10.0 uM"}, "[17]": {"target": "Small conductance calcium-activated potassium channel protein 1 (Rattus norvegicus) (UniProt P70606)", "assay": "Activity against K+/SKCA in the Eurofins Panlabs screen (BI) by Radioactive Assay", "details": "Compound concentration 10.0 uM"}, "[18]": {"target": "Tumor necrosis factor (Homo sapiens) (UniProt P01375)", "sequence (P01375 whole entry)": "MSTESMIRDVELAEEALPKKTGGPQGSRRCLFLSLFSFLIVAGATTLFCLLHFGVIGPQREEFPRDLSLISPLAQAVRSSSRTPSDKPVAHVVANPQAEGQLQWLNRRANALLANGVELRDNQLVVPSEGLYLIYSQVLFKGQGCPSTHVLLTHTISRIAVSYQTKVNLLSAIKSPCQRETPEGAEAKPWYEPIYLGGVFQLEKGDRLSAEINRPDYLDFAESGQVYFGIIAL", "assay": "Activity against TNFA/HU/HELA in the Eurofins Panlabs screen (BI) by Radioactive Assay", "details": "Compound concentration 10.0 uM"}, "[19]": {"target": "Beta-1 adrenergic receptor (Homo sapiens) (UniProt P08588)", "assay": "beta 1 Eurofins-Cerep binding assay", "parameters": "ligand concentration 0.3 nM", "details": "Compound concentration 10.0 uM"}, "[20]": {"target": "Polyunsaturated fatty acid lipoxygenase ALOX15 (Oryctolagus cuniculus) (UniProt P12530)", "sequence (P12530 whole entry)": "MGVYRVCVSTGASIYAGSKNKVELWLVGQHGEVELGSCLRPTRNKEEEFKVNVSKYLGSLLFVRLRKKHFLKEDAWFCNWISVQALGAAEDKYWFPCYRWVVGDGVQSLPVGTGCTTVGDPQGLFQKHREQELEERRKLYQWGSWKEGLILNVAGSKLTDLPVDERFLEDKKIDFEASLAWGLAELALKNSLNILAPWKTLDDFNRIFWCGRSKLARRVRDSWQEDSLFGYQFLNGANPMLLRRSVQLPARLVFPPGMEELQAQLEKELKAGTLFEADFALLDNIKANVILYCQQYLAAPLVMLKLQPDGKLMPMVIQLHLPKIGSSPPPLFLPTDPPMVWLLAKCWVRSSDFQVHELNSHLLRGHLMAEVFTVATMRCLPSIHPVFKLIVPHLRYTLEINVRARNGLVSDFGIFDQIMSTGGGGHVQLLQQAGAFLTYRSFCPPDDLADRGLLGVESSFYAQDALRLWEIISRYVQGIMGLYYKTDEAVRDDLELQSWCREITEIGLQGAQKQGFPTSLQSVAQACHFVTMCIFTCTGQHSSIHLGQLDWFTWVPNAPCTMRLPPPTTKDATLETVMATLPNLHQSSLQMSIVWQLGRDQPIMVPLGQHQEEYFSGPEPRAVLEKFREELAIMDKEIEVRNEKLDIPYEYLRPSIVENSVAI", "assay": "Inhibitor of 15LO in the Eurofins Panlabs screen (BI) by absorption of electromagnetic radiation", "details": "Compound concentration 30.0 uM"}, "[21]": {"target": "Somatostatin receptor type 5 (Mus musculus) (UniProt O08858)", "assay": "Activity against SOMATOS/MO in the Eurofins Panlabs screen (BI) by Radioactive Assay", "details": "Compound concentration 10.0 uM"}, "[22]": {"target": "Protein kinase C beta type (Homo sapiens) (UniProt P05771)", "sequence (P05771 2-671 limits assumed)": "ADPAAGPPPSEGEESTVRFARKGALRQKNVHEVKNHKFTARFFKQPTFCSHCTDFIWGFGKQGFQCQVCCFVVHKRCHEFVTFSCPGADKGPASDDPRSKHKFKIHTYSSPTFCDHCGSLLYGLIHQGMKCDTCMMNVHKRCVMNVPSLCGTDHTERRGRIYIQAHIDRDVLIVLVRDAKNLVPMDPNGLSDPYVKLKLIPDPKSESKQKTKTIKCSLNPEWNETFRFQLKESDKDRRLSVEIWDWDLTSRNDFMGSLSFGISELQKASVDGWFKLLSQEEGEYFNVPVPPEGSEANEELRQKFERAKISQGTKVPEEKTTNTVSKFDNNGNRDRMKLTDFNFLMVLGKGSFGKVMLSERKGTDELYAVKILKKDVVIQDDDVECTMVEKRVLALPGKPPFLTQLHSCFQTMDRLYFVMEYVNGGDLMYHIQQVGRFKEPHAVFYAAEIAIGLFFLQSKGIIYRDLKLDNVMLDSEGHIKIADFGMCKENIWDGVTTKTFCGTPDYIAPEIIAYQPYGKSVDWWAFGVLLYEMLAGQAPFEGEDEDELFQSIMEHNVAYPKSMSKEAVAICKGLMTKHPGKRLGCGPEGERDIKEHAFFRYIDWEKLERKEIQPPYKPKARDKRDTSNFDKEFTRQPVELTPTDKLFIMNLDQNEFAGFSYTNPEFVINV", "assay": "Inhibitor of PKCBETA in the Eurofins Panlabs screen (BI) by Radioactive Assay", "details": "Compound concentration 10.0 uM"}, "[23]": {"target": "Neuronal acetylcholine receptor subunit beta-2 (Rattus norvegicus) (UniProt P12390)", "assay": "Activity against NACH/CENT/R in the Eurofins Panlabs screen (BI) by Radioactive Assay", "details": "Compound concentration 10.0 uM"}, "[24]": {"target": "Acetyl-coenzyme A synthetase, cytoplasmic (Homo sapiens) (UniProt Q9NR19)", "assay": "Inhibitor of ACOASYN in the Eurofins Panlabs screen (BI) by Radioactive Assay", "details": "Compound concentration 100.0 uM"}, "[25]": {"target": "Beta-2 adrenergic receptor (Rattus norvegicus) (UniProt P10608)", "assay": "Activity against BETA2/R in the Eurofins Panlabs screen (BI) by Radioactive Assay", "details": "Compound concentration 10.0 uM"}, "[26]": {"target": "Serotonin 1 (5-HT1) receptor (Rattus norvegicus) (UniProt P28564+P30940+P19327+P28565)", "assay": "Activity against 5HT1/R in the Eurofins Panlabs screen (BI) by Radioactive Assay", "type": "protein assay", "details": "Compound concentration 10.0 uM"}, "[27]": {"target": "Androgen receptor (Rattus norvegicus) (UniProt P15207)", "assay": "Activity against TESTOST/R in the Eurofins Panlabs screen (BI) by Radioactive Assay", "details": "Compound concentration 10.0 uM"}, "[28]": {"target": "Gastrin/cholecystokinin type B receptor (Mus musculus) (UniProt P56481)", "assay": "Activity against CCKB/M in the Eurofins Panlabs screen (BI)", "details": "Compound concentration 10.0 uM"}, "[29]": {"target": "Endothelin-1 receptor (Homo sapiens) (UniProt P25101)", "assay": "ETA Eurofins-Cerep binding assay", "parameters": "ligand concentration 0.03 nM", "details": "Compound concentration 10.0 uM"}, "[30]": {"target": "Sodium-dependent dopamine transporter (Homo sapiens) (UniProt Q01959)", "assay": "dopamine transporter Eurofins-Cerep binding assay", "details": "Compound concentration 10.0 uM"}, "[31]": {"target": "Sodium-dependent serotonin transporter (Homo sapiens) (UniProt P31645)", "assay": "5-HT transporter Eurofins-Cerep binding assay", "parameters": "ligand concentration 2 nM", "details": "Compound concentration 10.0 uM"}, "[32]": {"target": "Neuropeptide Y receptor type 5 (Homo sapiens, UniProt Q15761)", "assay": "Radioligand binding assay (human NPY5R, HEK293)", "type": "cell-based"}, "[33]": {"target": "Alpha-2B adrenergic receptor (Rattus norvegicus) (UniProt P19328)", "sequence (P19328 whole entry)": "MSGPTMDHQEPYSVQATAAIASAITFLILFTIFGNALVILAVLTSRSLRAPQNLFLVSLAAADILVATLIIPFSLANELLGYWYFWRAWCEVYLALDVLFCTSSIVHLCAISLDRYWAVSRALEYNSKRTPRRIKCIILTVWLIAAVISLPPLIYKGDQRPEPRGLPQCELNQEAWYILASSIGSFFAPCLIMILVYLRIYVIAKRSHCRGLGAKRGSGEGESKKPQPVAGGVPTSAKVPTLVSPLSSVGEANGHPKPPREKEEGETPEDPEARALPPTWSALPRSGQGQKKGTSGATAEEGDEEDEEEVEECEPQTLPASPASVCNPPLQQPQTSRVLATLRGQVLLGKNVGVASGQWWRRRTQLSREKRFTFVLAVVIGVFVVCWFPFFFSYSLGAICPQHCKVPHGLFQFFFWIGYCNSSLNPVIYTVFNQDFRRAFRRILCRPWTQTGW", "assay": "Activity against ALPHA2B/R in the Eurofins Panlabs screen (BI)", "details": "Compound concentration 10.0 uM"}, "[34]": {"target": "Adenosine receptor A2a (Homo sapiens) (UniProt P29274)", "assay": "A2A Eurofins-Cerep binding assay", "parameters": "ligand concentration 6 nM", "details": "Compound concentration 10.0 uM"}, "[35]": {"target": "Tyrosine-protein kinase Lck (Homo sapiens) (UniProt P06239)", "assay": "Inhibitor of P56TYRKINLCK in the Eurofins Panlabs screen (BI) by FI - fluorescence intensity", "details": "Compound concentration 10.0 uM"}, "[36]": {"target": "Alpha-2A adrenergic receptor (Homo sapiens) (UniProt P08913)", "assay": "Inhibitor of ALPHA2A/HU in the Eurofins Cerep SafetyScreen44 (BI) by Radioactive Assay (Cerep_13)", "details": "Compound concentration 10.0 uM"}, "[37]": {"target": "Kappa-type opioid receptor (Homo sapiens) (UniProt P41145)", "assay": "kappa (KOP) Eurofins-Cerep binding assay", "details": "Compound concentration 10.0 uM"}, "Rattus norvegicus": {"species_on_record": "Rattus norvegicus", "assay": "KV channel Eurofins-Cerep binding assay", "parameters": "ligand concentration 0.01 nM", "details": "Compound concentration 10.0 uM"}, "[38]": {"target": "Bombesin receptor subtype-3 (Rattus norvegicus) (UniProt Q8K418)", "sequence (Q8K418 whole entry)": "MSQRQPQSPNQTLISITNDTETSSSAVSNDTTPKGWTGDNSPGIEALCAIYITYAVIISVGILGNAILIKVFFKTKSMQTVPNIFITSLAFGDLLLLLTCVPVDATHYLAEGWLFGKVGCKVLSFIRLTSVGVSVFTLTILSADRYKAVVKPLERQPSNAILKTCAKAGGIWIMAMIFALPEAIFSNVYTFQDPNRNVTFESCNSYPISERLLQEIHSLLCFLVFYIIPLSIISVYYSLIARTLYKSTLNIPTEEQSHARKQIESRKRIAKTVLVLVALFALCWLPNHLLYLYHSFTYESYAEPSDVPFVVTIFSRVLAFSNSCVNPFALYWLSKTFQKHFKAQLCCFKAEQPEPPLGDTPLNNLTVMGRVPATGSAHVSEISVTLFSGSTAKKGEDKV", "assay": "Activity against BOMBESIN/R in the Eurofins Panlabs screen (BI) by Radioactive Assay", "details": "Compound concentration 10.0 uM"}, "[39]": {"target": "Histamine H3 receptor (Rattus norvegicus) (UniProt Q9QYN8)", "sequence (Q9QYN8 whole entry)": "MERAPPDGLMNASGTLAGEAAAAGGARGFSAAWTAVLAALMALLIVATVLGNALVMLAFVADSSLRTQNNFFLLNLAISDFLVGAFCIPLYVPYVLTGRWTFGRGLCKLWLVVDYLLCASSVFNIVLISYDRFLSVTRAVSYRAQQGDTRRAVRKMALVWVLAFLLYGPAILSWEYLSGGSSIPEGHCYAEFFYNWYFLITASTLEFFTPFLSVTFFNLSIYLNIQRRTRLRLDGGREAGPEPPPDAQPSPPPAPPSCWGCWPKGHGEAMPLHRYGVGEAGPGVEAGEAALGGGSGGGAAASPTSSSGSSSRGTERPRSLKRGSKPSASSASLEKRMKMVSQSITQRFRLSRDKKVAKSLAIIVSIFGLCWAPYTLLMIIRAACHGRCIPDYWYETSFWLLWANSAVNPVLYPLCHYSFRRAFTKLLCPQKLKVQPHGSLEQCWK", "assay": "Activity against H3/R in the Eurofins Panlabs screen (BI) by […]", "details": "Compound concentration 10.0 uM"}, "[40]": {"target": "Nitric oxide synthase 3 (Rattus norvegicus) (UniProt Q62600)", "sequence (Q62600 whole entry)": "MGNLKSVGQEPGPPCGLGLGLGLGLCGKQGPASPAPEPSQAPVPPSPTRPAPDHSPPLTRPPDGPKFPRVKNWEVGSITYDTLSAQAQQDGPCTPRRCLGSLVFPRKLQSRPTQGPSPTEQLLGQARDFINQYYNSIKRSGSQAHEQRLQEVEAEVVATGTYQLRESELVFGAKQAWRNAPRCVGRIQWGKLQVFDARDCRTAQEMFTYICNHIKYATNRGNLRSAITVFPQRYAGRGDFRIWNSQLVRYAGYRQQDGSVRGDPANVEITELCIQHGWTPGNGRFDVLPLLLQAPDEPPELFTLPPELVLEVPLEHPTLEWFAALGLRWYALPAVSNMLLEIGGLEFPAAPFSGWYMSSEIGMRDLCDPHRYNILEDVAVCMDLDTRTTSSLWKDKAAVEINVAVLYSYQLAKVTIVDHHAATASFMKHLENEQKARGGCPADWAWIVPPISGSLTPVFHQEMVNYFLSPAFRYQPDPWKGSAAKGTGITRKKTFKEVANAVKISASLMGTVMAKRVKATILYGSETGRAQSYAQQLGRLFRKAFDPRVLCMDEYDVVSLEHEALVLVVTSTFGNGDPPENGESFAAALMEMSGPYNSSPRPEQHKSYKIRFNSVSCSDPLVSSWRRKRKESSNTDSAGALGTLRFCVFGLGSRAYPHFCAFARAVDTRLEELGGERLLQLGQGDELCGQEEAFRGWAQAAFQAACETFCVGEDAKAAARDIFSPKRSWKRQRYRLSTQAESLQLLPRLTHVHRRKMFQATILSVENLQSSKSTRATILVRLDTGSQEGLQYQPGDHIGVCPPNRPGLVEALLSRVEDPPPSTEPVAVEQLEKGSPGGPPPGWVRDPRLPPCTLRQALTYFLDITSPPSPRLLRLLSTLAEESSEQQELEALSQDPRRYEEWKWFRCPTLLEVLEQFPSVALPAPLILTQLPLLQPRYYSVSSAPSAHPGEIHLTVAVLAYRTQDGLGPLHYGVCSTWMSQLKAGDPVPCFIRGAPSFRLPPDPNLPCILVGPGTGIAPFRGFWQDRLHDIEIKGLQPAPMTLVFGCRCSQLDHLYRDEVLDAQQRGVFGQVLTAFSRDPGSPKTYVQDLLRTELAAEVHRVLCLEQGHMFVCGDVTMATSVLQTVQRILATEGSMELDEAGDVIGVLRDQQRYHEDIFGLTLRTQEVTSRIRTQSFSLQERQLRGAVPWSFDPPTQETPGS", "assay": "Inhibitor of CNOS in the Eurofins Panlabs screen (BI) by Radioactive Assay", "details": "Compound concentration 10.0 uM"}}, "data": [{"smiles": "N=C(N)NCCC[C@@H](NC(=O)C(c1ccccc1)c1ccccc1)C(=O)NCc1ccc(CNC(N)=O)cc1", "values": [{"measurement": "residual activity", "setting": "[1]", "value": 75, "unit": "%"}, {"measurement": "residual activity", "setting": "[2]", "value": 104, "unit": "%"}, {"measurement": "residual activity", "setting": "[3]", "value": 88, "unit": "%"}, {"measurement": "residual activity", "setting": "[4]", "value": 91, "unit": "%"}, {"measurement": "residual activity", "setting": "[5]", "value": 29, "unit": "%"}, {"measurement": "residual activity", "setting": "[6]", "value": 94, "unit": "%"}, {"measurement": "residual activity", "setting": "[7]", "value": 91, "unit": "%"}, {"measurement": "residual activity", "setting": "[8]", "value": 62, "unit": "%"}, {"measurement": "IC50", "setting": "[9]", "value": "> 10 µM (not active)"}, {"measurement": "residual activity", "setting": "[10]", "value": 98, "unit": "%"}, {"measurement": "residual activity", "setting": "[11]", "value": 99, "unit": "%"}, {"measurement": "residual activity", "setting": "[12]", "value": 77, "unit": "%"}, {"measurement": "residual activity", "setting": "[13]", "value": 84, "unit": "%"}, {"measurement": "residual activity", "setting": "[14]", "value": 89, "unit": "%"}, {"measurement": "residual activity", "setting": "[15]", "value": 84, "unit": "%"}, {"measurement": "residual activity", "setting": "[16]", "value": 105, "unit": "%"}, {"measurement": "residual activity", "setting": "[17]", "value": 119, "unit": "%"}, {"measurement": "residual activity", "setting": "[18]", "value": 114, "unit": "%"}, {"measurement": "residual activity", "setting": "[19]", "value": 106, "unit": "%"}, {"measurement": "residual activity", "setting": "[20]", "value": 118, "unit": "%"}, {"measurement": "residual activity", "setting": "[21]", "value": 103, "unit": "%"}, {"measurement": "residual activity", "setting": "[22]", "value": 89, "unit": "%"}, {"measurement": "residual activity", "setting": "[23]", "value": 98, "unit": "%"}, {"measurement": "residual activity", "setting": "[24]", "value": 100, "unit": "%"}, {"measurement": "residual activity", "setting": "[25]", "value": 77, "unit": "%"}, {"measurement": "residual activity", "setting": "[26]", "value": 90, "unit": "%"}, {"measurement": "residual activity", "setting": "[27]", "value": 88, "unit": "%"}, {"measurement": "residual activity", "setting": "[28]", "value": 117, "unit": "%"}, {"measurement": "residual activity", "setting": "[29]", "value": 112, "unit": "%"}, {"measurement": "residual activity", "setting": "[30]", "value": 79, "unit": "%"}, {"measurement": "residual activity", "setting": "[31]", "value": 84, "unit": "%"}, {"measurement": "IC50", "setting": "[32]", "value": "> 10 µM (not active)"}, {"measurement": "residual activity", "setting": "[33]", "value": 91, "unit": "%"}, {"measurement": "residual activity", "setting": "[34]", "value": 107, "unit": "%"}, {"measurement": "residual activity", "setting": "[35]", "value": 97, "unit": "%"}, {"measurement": "residual activity", "setting": "[36]", "value": 93, "unit": "%"}, {"measurement": "residual activity", "setting": "[37]", "value": 30, "unit": "%"}, {"measurement": "residual activity", "setting": "Rattus norvegicus", "value": 100, "unit": "%"}, {"measurement": "residual activity", "setting": "[38]", "value": 100, "unit": "%"}, {"measurement": "residual activity", "setting": "[39]", "value": 104, "unit": "%"}, {"measurement": "residual activity", "setting": "[40]", "value": 104, "unit": "%"}]}]}
